Here are results for twelve molecules from patent publication EP4782447A1, “HETEROAROMATIC SULFONAMIDE STRUCTURAL COMPOUND, PHARMACEUTICAL COMPOSITION THEREOF, AND USE THEREOF” (Shanghai Yingli Pharmaceutical Co., Ltd, priority 2023, dated 2025).

The target of one data set is T1, PARG (389-976) (Homo sapiens, UniProt Q86W56).
T1 construct: 5 µL of PARG (389-976) (manufactured by ChemPartner Co., Ltd.) was added into the 384-well plate; purchased ChemPartner Co., Ltd
The experiment in a line: PARG enzyme inhibition assay (TR-FRET). Type of data set: biochemical. The settings on record: PARG 1.5 pM, Bio PARylated His-TEV-PARP1 substrate 12 nM. Here is the method:
The in vitro PARG assay experiment was performed in a standard 384-well plate with a total reaction volume of 15 µL. In a buffer solution (50 mM Tris-HCl pH 7.5, 30 mM KCl, 1 mM EDTA, 3 mM DTT, 0.01% Tween-20, 0.025% BSA), 5 µL of PARG (389-976) (manufactured by ChemPartner Co., Ltd.) was added into the 384-well plate containing test compounds (with various concentrations) to obtain a final concentration of 1.5 pM, followed by incubation at room temperature for 30 minutes. Subsequently, 5 µL of Bio PARylated His-TEV-PARP1 (2-1014) substrate (manufactured by ChemPartner Co., Ltd.) was added into the above reaction mixture to obtain a final concentration of 12 nM, and the reaction was carried out at room temperature for 30 minutes after the addition was completed. Then, 5 µL of detection reagent was added. The detection reagent was prepared by buffer solution (50 mM Tris-HCl pH 7.5, 30 mM KCl, 1 mM EDTA, 3 mM DTT, 0.01% Tween-20, 0.025% BSA) consisting of 3 µM compound PDD00017273, 9 nM Mab anti-6HIS XL665 (Cisbio: 61HISXLA) and 0.9 nM streptavidin cryptate (Cisbio: 610SATLA). All three components were used at 3X working concentration, corresponding to final concentrations of 1 µM, 3 nM and 0.3 nM, respectively. After incubation at room temperature for 120 minutes in the dark place, the TR-FRET signals were measured at an excitation wavelength (Ex) of 340 nm, emission wavelengths (Em) of 665 nm and 615 nm. The ratio for each well was calculated as Em 665 / Em 615, and the compound inhibition rate was determined based on the obtained data. Table 1 Biochemical activity against PARG of the representative compounds of the rresent invention

The test system of another data set is HCC1395. Put plainly: Inhibitory effect on cell line proliferation detected by CTG assay. Type of data set: cell-based. As to conditions: Homo sapiens, 168 h; HCC1395 cells, 7 days, CellTiter-Glo. Here is the method: The relevant assays were performed in 3 84-well plates or 96-well plates. The detailed procedure is as follows: The tested cell suspension was added into 384-well or 96-well plates (excluding peripheral wells) (384-well plate: 50 µL; 96-well plate: 100 µL), and the plates were incubated in a carbon dioxide incubator overnight; specifically, HCC1395 and HCC1428 cells were incubated in a 5% carbon dioxide incubator at 37°C overnight. The tested compounds (9-10 compound concentration gradients via 3-fold serial dilution) were added into the corresponding well by a HPD300 micro-dosing instrument. The cell plates were incubated in a carbon dioxide incubator for 7 days; specifically, for HCC1395 and HCC1428 cells, maintaining the incubation condition at 5% carbon dioxide and 37°C throughout this period. On the day of detection, firstly, the 384-well or 96-well plates were equilibrated at room temperature for 10-30 minutes, and then CellTiter-Glo reagent was added into each plate (384-well plate: 25 µL; 96-well plate: 100 µL), the plates were shaked for 10 minutes in the dark place, and incubated for another 10 minutes. The plates were placed into the Victor NIVO microplate reader for measurement. The efficacy inhibition rate curves were ploted using XLFit software and the IC50 values were calculated. Table 2 Anti-proliferative activity assay results of the representative compounds of the present disclosure against cell lines

The subject of data set [1] is HCC1428 cell-derived tumors. Put plainly: In vivo pharmacodynamic study, subcutaneously implanted HCC1428 tumor model. The settings on record: 30 mg/kg PO, BID*28; BALB/c nude mice with subcutaneous HCC1428 tumors; start at average tumor volume 195 mm^3. The method, then:
Estrogen was administered to BALB/c nude mice via injection twice weekly until the end of the experiment, subcutaneous inoculation with 1×10^7 HCC1428 cells (suspended in 100 µL of RPMI medium supplemented with Matrigel at a 1:1 volume ratio). Grouping and drug administration were initiated when the average tumor volume reached 150-200 mm^3. During the experiment, the body weight of the mice and tumor size were measured twice weekly, and the clinical symptoms of the animals were observed and recorded daily. The length (a) and width (b) of the tumors were measured using a vernier caliper, and the tumor volume was calculated according to the formula: TV = a×b^2/2. The tumor growth inhibition rate (TGI, %) was calculated based on the tumor volume using the formula: TGI (%) = [1 - (Ti - T0)/ (Vi - V0)] ×100%, wherein Ti represents the mean tumor volume of the treatment group on the i-th day after grouping, T0 represents the mean tumor volume of the treatment group at the time of grouping, Vi represents the mean tumor volume of the vehicle control group on the i-th day after grouping, and V0 represents the mean tumor volume of the vehicle control group at the time of grouping.

A short description of data set [2]: Pharmacokinetic study of mice via intravenous injection and oral administration. The settings on record: mouse, male CD-1 mice, plasma, a: mixed blood samples, b: mean of individual samples. Type of data set: in vivo. The method, then:
Plasma samples from male C57BL/6J mice or male CD-1 mice after intravenous injection and oral administration dosing with the tested compound, were collected from the orbital venous plexus at 8-9 time points (e.g., 5 min, 15 min, 30 min, 1 h, 2 h, 4 h, 7 h, 24 h or 5 min, 15 min, 30 min, 1 h, 2 h, 4 h, 6 h, 8 h, 24 h). The collected blood samples were transferred to microcentrifuge tubes containing EDTA-K2 anticoagulant, centrifuged at 4000 g and 4°C for 5 min. The resulting supernatant was pipetted and stored in a -75°C ± 15°C refrigerator . The compound concentrations in plasma samples at different time points were determined via LC-MS/MS, and the relevant pharmacokinetic parameters were calculated using WinNonlin software. Table 3-1 Pharmacokinetic determination results of the representative compounds of the present disclosure

The mark [3] stands for this setting: Intravenous administration (5mg/kg).
Where [4] appears, read: in vivo, Intravenous administration (5mg/kg).
[5] abbreviates: in vivo, Oral administration (10mg/kg).

T1 sequence (Q86W56 389-976): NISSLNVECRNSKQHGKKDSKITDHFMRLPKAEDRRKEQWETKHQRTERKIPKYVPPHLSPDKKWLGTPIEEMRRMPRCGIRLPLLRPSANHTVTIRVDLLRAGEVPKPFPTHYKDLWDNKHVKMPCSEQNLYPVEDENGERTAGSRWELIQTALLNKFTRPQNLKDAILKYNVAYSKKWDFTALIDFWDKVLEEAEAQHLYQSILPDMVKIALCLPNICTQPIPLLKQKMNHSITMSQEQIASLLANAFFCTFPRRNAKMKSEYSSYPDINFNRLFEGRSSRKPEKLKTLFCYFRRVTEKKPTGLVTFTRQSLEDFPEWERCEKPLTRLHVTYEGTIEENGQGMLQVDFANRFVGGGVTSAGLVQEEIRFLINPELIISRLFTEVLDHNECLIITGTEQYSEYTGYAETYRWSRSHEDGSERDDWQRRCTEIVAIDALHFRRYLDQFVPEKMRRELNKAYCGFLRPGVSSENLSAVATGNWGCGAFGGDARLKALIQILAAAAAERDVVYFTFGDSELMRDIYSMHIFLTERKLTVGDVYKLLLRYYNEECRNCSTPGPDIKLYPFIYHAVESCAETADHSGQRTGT

`CC(C)S(=O)(=O)N1CC=C(c2c(F)c(S(=O)(=O)NC3(C#N)CC3)cc3c(-c4nnc(C(F)(F)F)s4)nn(C)c23)CC1` [Compound 1] displayed a half-maximal inhibitory concentration (IC50) against PARG (389-976) of 0.23 nM. This molecule also showed a concentration for half-maximal inhibition (IC50) in the data set with HCC1395 of 0.0949 µM. The “Tumor Growth Inhibition Rate TGI (%)” value in data set [1] is reported as 106.8%. Further, in data set [2] (setting [3]), the AUC(0-inf) was found to be 44.1 µg·h/mL, the AUC(0-t) is 44 µg·h/mL and the clearance is 0.113 L/h/kg. For the same molecule, in data set [2] (Oral administration (10mg/kg)), the AUC(0-inf) stood at 32.8 µg·h/mL, the area under the curve AUC(0-t) stood at 32.8 µg·h/mL and the Cmax was 4.32 µg/mL.
Turning to `CC1=C(c2c(F)c(S(=O)(=O)NC3(C#N)CC3)cc3c(-c4nnc(C(F)(F)F)s4)nn(C)c23)CCN(S(=O)(=O)C(C)C)C1` [Compound 2], it took 0.3 nM to reach half-maximal inhibition at PARG (389-976) (IC50). The IC50 in the data set on HCC1395 came to 0.0368 µM. In data set [2] (setting [3]), this molecule registered a total exposure AUC(0-inf) of 50.1 µg·h/mL, an AUC(0-t) of 49.6 µg·h/mL and a clearance of 0.101 L/h/kg. In data set [2] (Oral administration (10mg/kg)), the area under the curve AUC(0-inf) is 46.9 µg·h/mL, the area under the curve AUC(0-t) was 46.7 µg·h/mL and the Cmax amounted to 5.37 µg/mL.
For `CC(C)S(=O)(=O)N1CC=C(c2c(F)c(S(=O)(=O)NC3(C#N)CC3)cc3c(-c4nnc(C(F)F)s4)nn(C)c23)CC1` [Compound 3], the half-maximal inhibitory concentration (IC50) against PARG (389-976) came out at 0.19 nM. In the data set on HCC1395, this molecule gave a 50% inhibitory concentration (IC50) of 0.0992 µM. Further, in data set [2] (setting [3]), the total exposure AUC(0-inf) was determined as 33.7 µg·h/mL, the exposure AUC(0-t) was found to be 33.7 µg·h/mL and the clearance stood at 0.148 L/h/kg. In data set [2] (Oral administration (10mg/kg)), this molecule displayed an AUC(0-inf) of 12 µg·h/mL, an AUC(0-t) of 12 µg·h/mL and a Cmax of 3.3 µg/mL.
Consider `CC1=C(c2c(F)c(S(=O)(=O)NC3(C#N)CC3)cc3c(-c4nnc(C(F)F)s4)nn(C)c23)CCN(S(=O)(=O)C(C)C)C1` [Compound 4], for which inhibition against PARG (389-976) was half-maximal at 0.48 nM (IC50). This molecule yielded an IC50 with HCC1395 of 0.0445 µM. In data set [2] (setting [3]), the AUC(0-inf) was 20.3 µg·h/mL, the AUC(0-t) amounted to 18.4 µg·h/mL and the clearance was 0.25 L/h/kg. In addition, in data set [2] (Oral administration (10mg/kg)), the area under the curve AUC(0-inf) turned out to be 11.3 µg·h/mL, the area under the curve AUC(0-t) worked out at 11 µg·h/mL and the peak level (Cmax) was 2.01 µg/mL.
In the case of `CC1=C(c2c(F)c(S(=O)(=O)NC3(C)CC3)cc3c(-c4nnc(C(F)(F)F)s4)nn(C)c23)CCN(S(=O)(=O)C(C)C)C1` [Compound 5], the half-maximal inhibitory concentration (IC50) against PARG (389-976) came out at 0.43 nM; in the data set with HCC1395 it was 0.043 µM.
Regarding `CC(C)S(=O)(=O)N1CC=C(c2c(F)c(S(=O)(=O)NC3(C)CC3)cc3c(-c4nnc(C(F)(F)F)s4)nn(C)c23)CC1` [Compound 6], the values for the IC50 at PARG (389-976) and in the data set with HCC1395 were 0.35 nM and 0.0913 µM, respectively.
For `CC(C)S(=O)(=O)N1CC=C(c2c(F)c(S(=O)(=O)NC3(C)CC3)cc3c(-c4nnc(C(F)F)s4)nn(C)c23)CC1` [Compound 7] the same measures were 0.21 nM and 0.074 µM.
For `CC1=C(c2c(F)c(S(=O)(=O)NC3(C)CC3)cc3c(-c4nnc(C(F)F)s4)nn(C)c23)CCN(S(=O)(=O)C(C)C)C1` [Compound 8] the same measures were 0.17 nM and 0.0322 µM.
For the molecule `CC(C)C(=O)N1CC=C(c2c(F)c(S(=O)(=O)NC3(C#N)CC3)cc3c(-c4nnc(C(F)F)s4)nn(C)c23)CC1` [Compound 9], on PARG (389-976), the midpoint of inhibition, the IC50, lay at 0.56 nM. The same molecule showed a half-maximal inhibitory concentration (IC50) in the data set on HCC1395 of 0.0446 µM. In addition, in data set [2] (setting [3]), the AUC(0-inf) came to 8.56 µg·h/mL, the AUC(0-t) is 8.55 µg·h/mL and the clearance is 0.588 L/h/kg. In data set [2] (Oral administration (10mg/kg)), the AUC(0-inf) is 11.5 µg·h/mL, the area under the curve AUC(0-t) was found to be 11.5 µg·h/mL and the highest concentration (Cmax) came to 6.16 µg/mL.
For `CC(C)C(=O)N1CC=C(c2c(F)c(S(=O)(=O)NC3(C#N)CC3)cc3c(-c4nnc(C(F)(F)F)s4)nn(C)c23)CC1` [Compound 10], the IC50 against PARG (389-976) worked out at 1.24 nM.
In turn, `CC(C)C(=O)N1CC=C(c2c(F)c(S(=O)(=O)NC3(C)CC3)cc3c(-c4nnc(C(F)F)s4)nn(C)c23)CC1` [Compound 11] came in with an IC50 on PARG (389-976) of 0.7 nM.
`CCC1=C(c2c(F)c(S(=O)(=O)NC3(C#N)CC3)cc3c(-c4nnc(C(F)(F)F)s4)nn(C)c23)CCN(S(=O)(=O)C(C)C)C1` [Compound 13] returned a half-inhibitory concentration (IC50) in the data set on HCC1395 of 0.0313 µM. Also, in data set [2] (setting [4]), the AUC(0-inf) turned out to be 35.9 µg·h/mL, the AUC(0-t) came to 35.9 µg·h/mL and the clearance is 0.139 L/h/kg. Also, in data set [2] (setting [5]), the total exposure AUC(0-inf) came out at 25.4 µg·h/mL, the area under the curve AUC(0-t) was determined as 25.4 µg·h/mL and the peak level (Cmax) was 2.5 µg/mL.
